From PMC9865629, “Rhanteriol, a New Rhanterium suaveolens Desf. Lignan with Pharmacological Potential as an Inhibitor of Enzymes Involved in Neurodegeneration and Type 2 Diabetes” (Plants, 2023)

Key:
BuChE = details: read-out: IC50 (BuChE, by context); lignans from Citharexylum spinosum L.; cited from earlier work
α-glucosidase = α-glucosidase inhibition assay; type: biochemical; details: pure compound and standard
Procedure: Results are expressed as IC50 values (mg/mL for extracts and µM for pure compound), using GraphPad Prism 8 Software (San Diego, CA, USA). The assay was carried out in triplicate.

[1] = test system: Jurkat (T-cell leukemia) cells; assay: Cell viability MTT assay, Jurkat; type: cell-based; details: 100, 50, 25 µM for 48 h, data not shown
Procedure: HeLa (cervical carcinoma), Jurkat (T-cell leukemia), and U937 (monocytic leukemia) cell lines were obtained from the American Type Cell Culture (ATCC) (Rockville, MD, USA). Cells were maintained in DMEM (HeLa) or RPMI 1640 (Jurkat and U937), supplemented with 10% FBS, 100 mg/L streptomycin and penicillin 100 IU/mL at 37 °C in a humidified atmosphere of 5% CO2. To ensure logarithmic growth, cells were subcultured every two days. Stock solutions (50 mM) of purified compound in DMSO were stored in the dark at 4 °C. Appropriate dilutions were prepared in a culture medium immediately prior to use. […]
(§1) Cell viability was evaluated using a colorimetric assay based on an MTT ([3-(4,5-dimethylthiazol-2-yl)-2,5-diphenyltetrazolium bromide]) assay, in order to compare the effect of potentially cytotoxic substances with a control condition. […] The optical density (OD) of each well was measured with a microplate spectrophotometer (Multiskan Spectrum Thermo Electron Corporation reader, Thermo Fisher Scientific, Waltham, Massachusetts, United States) equipped with a 620 nm filter. Cell vitality was calculated as % vitality = 100 × (OD treated/OD DMSO).

[2] = test system: HaCaT epidermal keratinocytes; assay: Cell viability MTT assay, HaCaT; type: cell-based; details: 100, 50, 25 µM for 48 h, data not shown
Procedure: Epidermal keratinocytes (HaCaT) were cultured in Dulbecco’s Modified Eagle’s Medium containing 10% fetal bovine serum, supplemented with 100 U/mL each of penicillin and streptomycin, and 2 mM/L glutamine, and grown at 37 °C under 5% CO2 air humidified atmosphere. Human leukemia cell lines (Jurkat) were maintained in RPMI medium supplemented with 10% FBS, 2 mM l-glutamine, 100 U/mL penicillin, and […] at 37 °C, in 5% CO2 [26].
as §1, with “condition. Briefly, cells were plated in 96-well tissue culture plates (3.5 × 10^3 cells/well) and after 24 h, the medium was replaced with a fresh one alone or one containing serial dilutions of compound 1 (100, 50, 25 µM), and incubation was performed for 48 h. Staurosporin 0.2 µM was used as a positive control.” for “condition.”

[3] = target: butyrylcholinesterase (BuChE) (Homo sapiens, UniProt P06276); assay: biochemical
Sequence of butyrylcholinesterase (BuChE) (P06276 29-602): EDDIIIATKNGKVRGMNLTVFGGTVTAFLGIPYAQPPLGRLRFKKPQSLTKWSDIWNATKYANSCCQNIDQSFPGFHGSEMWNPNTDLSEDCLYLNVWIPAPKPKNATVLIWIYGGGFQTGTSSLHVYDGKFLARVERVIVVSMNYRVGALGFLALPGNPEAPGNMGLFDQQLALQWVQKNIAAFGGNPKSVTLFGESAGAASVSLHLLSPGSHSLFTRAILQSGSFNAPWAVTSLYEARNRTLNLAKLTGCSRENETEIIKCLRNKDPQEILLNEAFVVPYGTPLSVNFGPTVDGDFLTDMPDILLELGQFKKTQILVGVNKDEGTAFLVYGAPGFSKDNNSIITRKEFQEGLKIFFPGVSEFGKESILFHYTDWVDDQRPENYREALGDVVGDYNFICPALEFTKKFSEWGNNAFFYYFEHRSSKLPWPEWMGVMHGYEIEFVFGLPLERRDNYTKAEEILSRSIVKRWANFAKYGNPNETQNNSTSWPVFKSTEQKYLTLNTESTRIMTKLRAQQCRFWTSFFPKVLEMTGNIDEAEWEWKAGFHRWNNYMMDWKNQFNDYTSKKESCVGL
Procedure: (§2) The inhibition of AChE and BuChE was evaluated using Ellman’s method, as previously reported. Briefly, extracts and pure compound were incubated with AChE or BuChE (25 µL, 0.05 U/mL), DTNB (125 µL, 3 mM) and buffer B (25 µL, 50 mM Tris–HCl, pH 8 containing 0.1% BSA) for 10 min at 37 °C. Then, the substrate of the reaction, the acetylthiocholine iodide or butyrylthiocholine chloride (25 µL, 5 mM), was added, and the absorbance was measured at 405 nm, after 10 min. Galanthamine was used as the standard in both assays. Results are expressed as IC50 values (mg/mL for extracts and µM for pure compound), using GraphPad Prism 8 Software (San Diego, CA, USA). The test was carried out in triplicate.

[4] = target: acetylcholinesterase (AChE) (Homo sapiens, UniProt P22303); assay: biochemical; details: read-out: % of inhibition against AChE
Sequence of acetylcholinesterase (AChE) (P22303 32-614, species assumed): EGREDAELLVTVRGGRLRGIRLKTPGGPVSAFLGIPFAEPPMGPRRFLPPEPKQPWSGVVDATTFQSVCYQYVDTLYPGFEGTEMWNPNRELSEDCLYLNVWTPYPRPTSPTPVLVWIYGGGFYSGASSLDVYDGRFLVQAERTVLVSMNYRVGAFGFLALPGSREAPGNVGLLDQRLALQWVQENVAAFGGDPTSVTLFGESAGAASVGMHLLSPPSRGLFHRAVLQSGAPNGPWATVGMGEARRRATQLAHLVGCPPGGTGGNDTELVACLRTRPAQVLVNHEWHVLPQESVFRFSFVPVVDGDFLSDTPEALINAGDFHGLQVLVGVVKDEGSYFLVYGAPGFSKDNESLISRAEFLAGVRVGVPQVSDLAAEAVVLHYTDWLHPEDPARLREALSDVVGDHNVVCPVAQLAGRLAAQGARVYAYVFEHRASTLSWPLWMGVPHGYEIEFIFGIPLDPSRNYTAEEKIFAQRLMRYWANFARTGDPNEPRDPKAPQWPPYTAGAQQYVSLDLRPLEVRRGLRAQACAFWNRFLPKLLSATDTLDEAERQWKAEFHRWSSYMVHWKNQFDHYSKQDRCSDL
Procedure: as §2

[5] = test system: U937 (monocytic leukemia) cells; assay: Cell viability MTT assay, U937; type: cell-based; details: 100, 50, 25 µM for 48 h, data not shown
Procedure: (§3) HeLa (cervical carcinoma), Jurkat (T-cell leukemia), and U937 (monocytic leukemia) cell lines were obtained from the American Type Cell Culture (ATCC) (Rockville, MD, USA). Cells were maintained in DMEM (HeLa) or RPMI 1640 (Jurkat and U937), supplemented with 10% FBS, 100 mg/L streptomycin and penicillin 100 IU/mL at 37 °C in a humidified atmosphere of 5% CO2. To ensure logarithmic growth, cells were subcultured every two days. Stock solutions (50 mM) of purified compound in DMSO were stored in the dark at 4 °C. Appropriate dilutions were prepared in a culture medium immediately prior to use.
as §1, with “condition. Briefly, cells were plated in 96-well tissue culture plates (3.5 × 10^3 cells/well) and after 24 h, the medium was replaced with a fresh one alone or one containing serial dilutions of compound 1 (100, 50, 25 µM), and incubation was performed for 48 h.” for “condition.”

[6] = test system: HeLa (cervical carcinoma) cells; assay: Cell viability MTT assay, HeLa; type: cell-based; details: 100, 50, 25 µM for 48 h, data not shown
Procedure: as §3
as §1, with “condition. Briefly, cells were plated in 96-well tissue culture plates (3.5 × 10^3 cells/well) and after 24 h, the medium was replaced with a fresh one alone or one containing serial dilutions of compound 1 (100, 50, 25 µM), and incubation was performed for 48 h.” for “condition.”

Molecule	IC50 (BuChE) [µM]	IC50 (α-glucosidase) [µM]	cytotoxicity (MTT) [1]	cytotoxicity (MTT) [2]	IC50 [3] [µM]	inhibition at 100 µM [4] [%]	cytotoxicity (MTT) [5]	cytotoxicity (MTT) [6]
plucheoside D2	71.3 ± 2.82							
COc1cc(C[C@@H]2CO[C@@H](c3ccc(O)c(OC)c3)[C@@H]2COC(=O)c2ccccc2)ccc1O [Compound 1, 4-benzoic acid 4-(4-hydroxy-3-meethoxybenzyl)-2-(4-hydroxy-3-methoxyphenyl) tetrahydrofuran-3-ylmethyl ester]		26.8 ± 3.29	not toxic	not toxic	10.41 ± 0.03	21	not toxic	not toxic
plucheoside D1	98.1 ± 2.72							
